Crystallinity degree data for 1 molecule are collected here from patent US20090186009A1, “SOLID MATTER CONTAINING COENZYME Q” (Kaneka Corporation, priority 2006, published 2009).

This series can be described thus: Crystallization rate of coenzyme Q10 in granule by differential scanning calorimetric analysis. In kind it is physicochemical. As to conditions: DSC, calculated from melting heat (ΔH); 20° C.→80° C. (5° C./min)→−50° C. The method, then:
Calorimetric analysis of coenzyme Q10 granules obtained in Example 1 and Example 4 and oxidized coenzyme Q10 powder (Kaneka-coenzyme Q10) used as the starting material in Preparation Examples 1-3 by a differential scanning calorimetric analyzer (manufactured by SII; EXSTAR6000 DSC6220) was performed under the following conditions. The crystallization rate was calculated from the measurement value of the melting heat (ΔH).
Analysis conditions; 20° C.→80° C. (5° C./min)→−50° C. (−5° C./min)

Consider `COC1=C(OC)C(=O)C(C/C=C(\C)CC/C=C(\C)CC/C=C(\C)CC/C=C(\C)CC/C=C(\C)CC/C=C(\C)CC/C=C(\C)CC/C=C(\C)CC/C=C(\C)CCC=C(C)C)=C(C)C1=O` [Kaneka coenzyme Q10, oxidized coenzyme Q10], for which the crystallinity degree is 100%.
